Laboratory results taken from patent publication US20260226101A1, “PEPTIDE WITH ANTI-INFLAMMATORY AND ANTI-MICROBIAL ACTIVITY” (priority 2023, published 2026).
Ends that are not written are not given here.

Tests used:
Test in all cases: Time-kill assay
Format in all cases: cell-based
[1] = tested on: Escherichia coli ATCC 8739; conditions: E. coli
Protocol: (§1) The survival of bacteria, time kill efficacy assay of IS 111 was further evaluated for activity against bacterial strain mentioned above according to CLSI reference method, with slightly modification. MICs were determined by broth microdilution assay as described above. […] Test tubes of MHB without test compound IS 111 were used as vehicle controls. Overnight cultures of the bacterial strains at cell densities of approximately 1×10^8 CFU/ml were used to inoculate both test and control tubes. The standard tube dilution method was opted to evaluate the time-kill efficacy of bacteria. Bacterial inoculum (1 mL) was diluted by adding 9 mL sterile saline solution and serially diluted up to 10^−3. […] 100 μL incubated suspension was transferred on the agar plates and spread through the spreader. Colony counts were performed after 24 h incubation at 37° C. Plates with 10-300 colonies were used for these counts, and the kill rate was determined by plotting log 10 viable counts (CFU/ml) against time. Bactericidal activity was defined as a ≥3 log 10 decreases in CFU/ml of the initial microbial population, while bacteriostatic activity was defined was defined as a <3 log 10 decrease in CFU/ml. The assay was performed in triplicate [Olufunmiso O Olajuyigbe et al., 2015; Sutthiwan Thammawat et al., 2017]
(§2) The time-kill kinetics antibacterial study of the Peptide IS 111 was carried out to assess the killing rate of the compound within a given contact time. The survival of bacteria, time kill efficacy assay of IS 111 was further evaluated for activity against Escherichia coli ATCC 8739 and Staphylococcus aureus ATCC 6538, Pseudomonas aeruginosa ATCC 9027 and Klebsiella pneumoniae ATCC 700603 according to CLSI reference method, with slightly modification. MICs were determined by broth microdilution assay as described above. […] 10. Test tubes of MHB without test compound Peptide IS 111 were used as vehicle controls. Overnight cultures of the bacterial strains at cell densities of approximately 1×10^6 CFU/ml were used to inoculate both test and control tubes.
(§3) After each interval, ten-fold dilutions were prepared with normal saline, and 100 μL incubated suspension was transferred on the agar plates and spread through the spreader. Colony counts were performed after 24 h incubation at 37° C. Plates with 10-300 colonies were used for these counts, and the kill rate was determined by plotting log 10 viable counts (CFU/ml) against time. Bactericidal activity was defined as a ≥3 log 10 decrease in CFU/ml of the initial microbial population, while bacteriostatic activity was defined as a <3 log 10 decrease in CFU/ml. The assay was performed in triplicate. The proportion of cells surviving at 60 min was calculated, as was the mean and standard deviation. Proportions of surviving cells were compared using Student's 2-tailed t-test, assuming unequal variance and differences were considered significant where p≤0.05.

[2] = tested on: Pseudomonas aeruginosa ATCC 9027; conditions: P. aeruginosa
Protocol: as §1, §2, §3

[3] = tested on: Klebsiella pneumoniae ATCC 700603; conditions: K. pneumoniae
Protocol: as §1, §2, §3

FAKKFAK [IS 111, Phe-Ala-Lys-Lys-Phe-Ala-Lys]
Viable count ([1]; 0.5 × MIC, 0 h): 6.4 ± 0.48 1 × 10^5 CFU/ml | Viable count ([1]; 0.5 × MIC, 1 h): 5.5 ± 0.28 1 × 10^5 CFU/ml | Viable count ([1]; 0.5 × MIC, 2 h): 5.0 ± 0.20 1 × 10^5 CFU/ml | Viable count ([1]; 0.5 × MIC, 3 h): 4.2 ± 0.10 1 × 10^5 CFU/ml | Viable count ([1]; 0.5 × MIC, 4 h): 3.7 ± 0.08 1 × 10^5 CFU/ml | Viable count ([1]; 0.5 × MIC, 5 h): 2.9 ± 0.35 1 × 10^5 CFU/ml | Viable count ([1]; 0.5 × MIC, 12 h): 2.5 ± 0.35 1 × 10^5 CFU/ml | Viable count ([1]; 0.5 × MIC, 24 h): 2.3 ± 0.43 1 × 10^5 CFU/ml | Reduction in viability ([1]; 0.5×MIC (0.78 μg/ml), 24 h): 2 log 10 CFU/ml | Type of activity (bacteriostatic or bactericidal) ([1]; 0.5×MIC and 1×MIC, 24 h): bacteriostatic | Viable count ([1]; 1 × MIC, 0 h): 6.5 ± 0.10 1 × 10^5 CFU/ml | Viable count ([1]; 1 × MIC, 1 h): 4.2 ± 0.45 1 × 10^5 CFU/ml | Viable count ([1]; 1 × MIC, 2 h): 2.1 ± 0.38 1 × 10^5 CFU/ml | Viable count ([1]; 1 × MIC, 3 h): 1.2 ± 0.28 1 × 10^5 CFU/ml | Viable count ([1]; 1 × MIC, 4 h): 0.6 ± 0.20 1 × 10^5 CFU/ml | Viable count ([1]; 1 × MIC, 5 h): 0.4 ± 0.10 1 × 10^5 CFU/ml | Viable count ([1]; 1 × MIC, 12 h): 0.2 ± 0.08 1 × 10^5 CFU/ml | Viable count ([1]; 1 × MIC, 24 h): 0 1 × 10^5 CFU/ml | Time to complete reduction of initial inoculum ([1]; 1×MIC): 24 h | Viable count ([1]; 5 × MIC, 0 h): 6.5 ± 0.23 1 × 10^5 CFU/ml | Viable count ([1]; 5 × MIC, 1 h): 0.5 ± 0.05 1 × 10^5 CFU/ml | Viable count ([1]; 5 × MIC, 2 h): 0.2 ± 0.05 1 × 10^5 CFU/ml | Viable count ([1]; 5 × MIC, 3 h): 0 1 × 10^5 CFU/ml | Viable count ([1]; 5 × MIC, 4 h): 0 1 × 10^5 CFU/ml | Viable count ([1]; 5 × MIC, 5 h): 0 1 × 10^5 CFU/ml | Viable count ([1]; 5 × MIC, 12 h): 0 1 × 10^5 CFU/ml | Viable count ([1]; 5 × MIC, 24 h): 0 1 × 10^5 CFU/ml | Viable count ([2]; 0.5 × MIC, 0 h): 6.3 ± 0.30 1 × 10^5 CFU/ml | Viable count ([2]; 0.5 × MIC, 1 h): 5.4 ± 0.18 1 × 10^5 CFU/ml | Viable count ([2]; 0.5 × MIC, 2 h): 4.9 ± 0.15 1 × 10^5 CFU/ml | Viable count ([2]; 0.5 × MIC, 3 h): 4.1 ± 0.20 1 × 10^5 CFU/ml | Viable count ([2]; 0.5 × MIC, 4 h): 3.5 ± 0.15 1 × 10^5 CFU/ml | Viable count ([2]; 0.5 × MIC, 5 h): 2.8 ± 0.23 1 × 10^5 CFU/ml | Viable count ([2]; 0.5 × MIC, 12 h): 2.4 ± 0.15 1 × 10^5 CFU/ml | Reduction in viability ([2]; 0.5×MIC (1.56 μg/ml), 24 h): 1 log 10 CFU/ml | Type of activity (bacteriostatic or bactericidal) ([2]; 0.5×MIC, 24 h): bacteriostatic | Viable count ([2]; 0.5×MIC, 24 h): 2.1 ± 0.25 1 × 10^5 CFU/ml | Viable count ([2]; 1 × MIC, 0 h): 6.4 ± 0.15 1 × 10^5 CFU/ml | Viable count ([2]; 1 × MIC, 1 h): 4.0 ± 0.30 1 × 10^5 CFU/ml | Viable count ([2]; 1 × MIC, 2 h): 1.9 ± 0.20 1 × 10^5 CFU/ml | Viable count ([2]; 1 × MIC, 3 h): 1.0 ± 0.08 1 × 10^5 CFU/ml | Viable count ([2]; 1 × MIC, 4 h): 0.5 ± 0.08 1 × 10^5 CFU/ml | Viable count ([2]; 1 × MIC, 5 h): 0.2 ± 0.05 1 × 10^5 CFU/ml | Viable count ([2]; 1 × MIC, 12 h): 0.0 1 × 10^5 CFU/ml | Viable count ([2]; 1 × MIC, 24 h): 0.0 1 × 10^5 CFU/ml | Time to bacteriostatic activity ([2]; 1×MIC (3.13 μg/ml)): ≤ 12 h | Viable count ([2]; 5 × MIC, 0 h): 6.4 ± 0.15 1 × 10^5 CFU/ml | Viable count ([2]; 5 × MIC, 1 h): 0.4 ± 0.10 1 × 10^5 CFU/ml | Viable count ([2]; 5 × MIC, 2 h): 0.0 1 × 10^5 CFU/ml | Viable count ([2]; 5 × MIC, 3 h): 0.0 1 × 10^5 CFU/ml | Viable count ([2]; 5 × MIC, 4 h): 0.0 1 × 10^5 CFU/ml | Viable count ([2]; 5 × MIC, 5 h): 0.0 1 × 10^5 CFU/ml | Viable count ([2]; 5 × MIC, 12 h): 0.0 1 × 10^5 CFU/ml | Viable count ([2]; 5 × MIC, 24 h): 0.0 1 × 10^5 CFU/ml | Viable count ([3]; 0.5 × MIC, 0 h): 4.8 ± 0.50 1 × 10^5 CFU/ml | Viable count ([3]; 0.5 × MIC, 1 h): 4.2 ± 0.35 1 × 10^5 CFU/ml | Viable count ([3]; 0.5 × MIC, 2 h): 3.4 ± 0.55 1 × 10^5 CFU/ml | Viable count ([3]; 0.5 × MIC, 3 h): 2.9 ± 0.45 1 × 10^5 CFU/ml | Viable count ([3]; 0.5 × MIC, 4 h): 2.1 ± 0.48 1 × 10^5 CFU/ml | Viable count ([3]; 0.5 × MIC, 5 h): 1.7 ± 0.30 1 × 10^5 CFU/ml | Viable count ([3]; 0.5 × MIC, 12 h): 1.5 ± 0.33 1 × 10^5 CFU/ml | Reduction in viability ([3]; 0.5×MIC (3.13 μg/ml), 24 h): < 1 log 10 CFU/ml | Type of activity (bacteriostatic or bactericidal) ([3]; 0.5×MIC, 24 h): bacteriostatic | Viable count ([3]; 0.5×MIC, 24 h): 0.8 ± 0.13 1 × 10^5 CFU/ml | Viable count ([3]; 1 × MIC, 0 h): 5.1 ± 0.23 1 × 10^5 CFU/ml | Viable count ([3]; 1 × MIC, 1 h): 4.0 ± 0.18 1 × 10^5 CFU/ml | Viable count ([3]; 1 × MIC, 2 h): 1.9 ± 0.40 1 × 10^5 CFU/ml | Viable count ([3]; 1 × MIC, 3 h): 1.2 ± 0.15 1 × 10^5 CFU/ml | Viable count ([3]; 1 × MIC, 4 h): 0.6 ± 0.03 1 × 10^5 CFU/ml | Viable count ([3]; 1 × MIC, 5 h): 0.5 ± 0.05 1 × 10^5 CFU/ml | Viable count ([3]; 1 × MIC, 12 h): 0.2 ± 0.15 1 × 10^5 CFU/ml | Viable count ([3]; 1 × MIC, 24 h): 0 1 × 10^5 CFU/ml | Time to bacteriostatic activity ([3]; 1×MIC (6.25 μg/ml)): ≤ 24 h | Viable count ([3]; 5 × MIC, 0 h): 5.6 ± 0.18 1 × 10^5 CFU/ml | Viable count ([3]; 5 × MIC, 1 h): 1.8 ± 0.13 1 × 10^5 CFU/ml | Viable count ([3]; 5 × MIC, 2 h): 0.9 ± 0.08 1 × 10^5 CFU/ml | Viable count ([3]; 5 × MIC, 3 h): 0.6 ± 0.08 1 × 10^5 CFU/ml | Viable count ([3]; 5 × MIC, 4 h): 0.4 ± 0.05 1 × 10^5 CFU/ml | Viable count ([3]; 5 × MIC, 5 h): 0 1 × 10^5 CFU/ml | Viable count ([3]; 5 × MIC, 12 h): 0 1 × 10^5 CFU/ml | Viable count ([3]; 5 × MIC, 24 h): 0 1 × 10^5 CFU/ml | Time to bacteriostatic activity ([3]; 5×MIC (31.25 μg/ml)): ≤ 5 h
